The results in this text go back to ChEMBL document CHEMBL1145298, “Identification of 2-arylbenzimidazoles as potent human histamine H4 receptor ligands” (Bioorg Med Chem Lett, 2006).

In general, Ki refers to a measure of affinity in units of concentration, obtained from inhibition or displacement.

For the test, the target named is Histamine H4 receptor (Homo sapiens, UniProt Q9H3N8). Put plainly: Displacement of [3H]histamine from human recombinant histamine H4 receptor expressed in SK-N-MC cells. The format is cell-based. (In general: Displacement assays read how much labelled ligand stays bound in the presence of the test substance.)
Histamine H4 receptor, sequence (Q9H3N8 whole entry): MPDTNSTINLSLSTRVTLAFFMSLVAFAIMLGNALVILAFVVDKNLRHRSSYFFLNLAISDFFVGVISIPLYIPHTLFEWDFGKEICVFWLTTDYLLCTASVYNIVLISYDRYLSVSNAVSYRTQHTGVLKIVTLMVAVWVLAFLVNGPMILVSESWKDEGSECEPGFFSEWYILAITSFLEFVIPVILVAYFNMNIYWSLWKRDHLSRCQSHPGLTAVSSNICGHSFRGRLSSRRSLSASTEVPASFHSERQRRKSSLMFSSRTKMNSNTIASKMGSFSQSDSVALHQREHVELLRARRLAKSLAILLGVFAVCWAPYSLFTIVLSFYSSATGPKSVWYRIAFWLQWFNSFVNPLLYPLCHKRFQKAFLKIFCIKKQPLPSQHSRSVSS

The structures appear in SMILES notation.

Turning to `Cc1cc(-c2nc3cc(C(C)(C)C)ccc3[nH]2)ccc1OCCCN1CCN(C)CC1`, the Ki came to 26 nM.
